In US20220017468A1, “ISOQUINOLINE COMPOUNDS AND THEIR USE IN TREATING AhR IMBALANCE” (Dermavant Sciences GmbH, priority 2020, published 2022):
Values joined by “and” are separate entries in the source; they are usually repeats but may differ in a detail not shown here. Equal entries are not always repeated. Where two headings read alike, the source gives them in different places.

What was measured:
[1] = blood-to-plasma ratio and blood cell association, minipig; format: in vitro ADME
[2] = pharmacokinetics after a single intravenous dose, minipig; format: in vivo; settings: plasma, 1 mg/kg intravenous, mean
Text: Bioavailability was 46.5% and 41.0% for 30% Captisol and 30% Cavitron, respectively. 30% Captisol formulation was selected for the 7-day subcutaneous toxicity study in rat.

AhR = target: T1, AhR (Homo sapiens, UniProt P35869); assay: CYP1A1-bla LS-180 AhR agonist assay; format: cell-based
T1 construct: LS-180 cells stably transfected with a CYP1A1 promoter-linked beta-lactamase gene reporter construct; endogenous in cells; host or cells: CYP1A1-bla LS-180 cells
T1 sequence (P35869 11-848): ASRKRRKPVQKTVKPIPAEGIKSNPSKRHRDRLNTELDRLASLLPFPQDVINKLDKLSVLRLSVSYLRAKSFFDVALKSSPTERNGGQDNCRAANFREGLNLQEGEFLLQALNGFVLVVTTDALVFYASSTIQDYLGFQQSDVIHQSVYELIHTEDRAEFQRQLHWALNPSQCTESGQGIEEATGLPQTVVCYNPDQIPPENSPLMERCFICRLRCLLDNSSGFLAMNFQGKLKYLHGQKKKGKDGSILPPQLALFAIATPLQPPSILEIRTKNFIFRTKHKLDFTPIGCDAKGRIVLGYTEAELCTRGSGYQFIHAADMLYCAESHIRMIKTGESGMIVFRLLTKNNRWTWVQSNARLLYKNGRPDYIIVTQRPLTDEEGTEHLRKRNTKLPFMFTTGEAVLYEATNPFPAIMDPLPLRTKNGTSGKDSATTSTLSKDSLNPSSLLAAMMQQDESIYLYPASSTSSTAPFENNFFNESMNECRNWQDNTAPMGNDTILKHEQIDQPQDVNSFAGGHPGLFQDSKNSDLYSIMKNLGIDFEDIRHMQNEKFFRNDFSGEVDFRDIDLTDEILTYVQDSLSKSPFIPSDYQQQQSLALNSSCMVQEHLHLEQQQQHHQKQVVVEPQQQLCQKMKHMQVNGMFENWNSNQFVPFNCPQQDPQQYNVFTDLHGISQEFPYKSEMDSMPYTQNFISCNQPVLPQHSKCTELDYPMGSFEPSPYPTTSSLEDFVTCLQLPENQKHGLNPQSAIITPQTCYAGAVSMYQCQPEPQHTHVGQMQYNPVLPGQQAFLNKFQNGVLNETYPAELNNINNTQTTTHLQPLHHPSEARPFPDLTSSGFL
Procedure: LS-180 cells stably transfected with a CYP1A1 promoter-linked beta-lactamase gene reporter construct (termed CYP1A1-bla LS-180 cells) were used to characterize the ability of compounds to activate AhR. In brief, AhR activity was measured using the LiveBLAzer assay kit which utilizes a beta lactamase (bla) reporter gene downstream of CYP1A1 promoter, which metabolizes its substrate to give a fluorescent readout. For the agonist assay, CYP1A1-bla LS-180 cells were treated with increasing concentrations of compound over a 100,000-fold concentration range.
CYP1A1-bla LS-180 cells in exponential growth phase were washed twice with DPBS then seeded into 96-well microplates (50,000 cells/well) and allowed to adhere. […] The LiveBLAzer FRET B/G β-lactamase substrate was added in the final hour of incubation and resulting blue/green fluorescence was measured using a 96-well microplate reader.
AhR activity was measured as a function of beta-lactamase expression using a fluorescence resonance energy transfer-based readout. TCDD and FICZ were used as controls to validate the system.

[3] = tested on: AhR pathway (CYP1A1 mRNA); assay: sRICA ex vivo human skin explant, CYP1A1 induction; format: cell-based; settings: 1 μM or 10 μM in the baso-lateral media
Text: A liquid-air interface skin explant culture with the in situ activation of immunocompetent cells, termed sRICA for skin-Resident Immune Cell Activation model was previously reported (Smith et al., (2016) PLoS One, 11(2)). In this assay, specific cytokine profiles of inflammatory skin diseases can be induced, including the Th17-type cytokines, IL17A, IL17F and IL22. Reduction of biomarkers in this assay indicates biological activity of the test compound.
Ex vivo human skin obtained from abdominoplasty surgery was processed to remove fat and dermatomed the tissue to ˜750 microns. Dermatomed skin was then cleaned in two serial rinses of 5-10 minutes each in room temperature PBS containing an antibiotic/antimycotic solution.
Skin was treated as asceptic from this point on; all further manipulations were performed in a class II biosafety cabinet. […]
The harvested skin tissue were stored in RNAlater until use. […] RNA was diluted to a concentration of 23.6 ng/ul (total of 100 ng RNA), and was used as template in a 10 uL PCR volume using Applied Biosciences RNA-to-CT 1 Step kit (AB Catalog # 4392938) and the specific TaqMan probes foreach gene to be quantified. […]
RNA levels of gene of interest's Relative Expression was calculated using the Delta Delta CT formula.
RNA was isolated from the tissue harvested at 24 hr and 48 hr post stimulation and gene expression was assessed by quantitative PCR. […]

With `CC(C)c1c(O)cc(-c2cc3ccccc3cn2)cc1O` the “% Blood Cell Association Mean (% CV)” value ([1]; 1 μM) was 55.6 (2.02) %, the “% Blood Cell Association Replicate” value ([1]; 1 μM) was 55.3% and 56.8% and 54.5% and the “Blood-to-plasma Ratio Replicate” value ([1]; 1 μM) was 1.25 and 1.19. For the same compound, the “Mean % Blood Stability” value ([1]; 1 μM) was 105%, the blood plasma ratio at 1 μM ([1]; read-out: Blood-to-plasma Ratio Mean (% CV)) was 1.22 and the blood plasma ratio at 1 μM ([1]; read-out: Blood-to-plasma Ratio Replicate) was 1.21. It also gave an AUC(0-inf) [2] of 783 ng·h/mL, a half-life [2] of 1.02 h and a clearance ([2]; read-out: CLp) of 21.3 mL/min/kg. The Vd ([2]; read-out: Vss) was 1.5 L/kg, the EC50 (AhR) was 15.8 nM and the “AhR pathway activation as measured by cyp1a1 gene induction” value [3] was “confirmed”.
